{"source": "ChEMBL document CHEMBL4265905", "about": "“Synthesis and biological evaluation of novel Jiyuan Oridonin A-1,2,3-triazole-azole derivatives as antiproliferative agents” (Eur J Med Chem, 2018)", "key": {"[1]": {"test_system": "ECa-109 cell line", "assay": "Antiproliferative activity against human ECA109 cells after 72 hrs by MTT assay", "type": "functional, cell-based", "conditions": "ECa-109, 72 h"}, "[2]": {"test_system": "MGC-803", "assay": "Antiproliferative activity against human MGC803 cells after 72 hrs by MTT assay", "type": "functional, cell-based", "conditions": "MGC-803, 72 h"}, "[3]": {"test_system": "PC-3", "assay": "Antiproliferative activity against human PC3 cells after 72 hrs by MTT assay", "type": "functional, cell-based", "conditions": "PC-3, 72 h"}, "[4]": {"test_system": "MCF7", "assay": "Antiproliferative activity against human MCF7 cells after 72 hrs by MTT assay", "type": "functional, cell-based", "conditions": "MCF7, 72 h"}, "[5]": {"test_system": "A549", "assay": "Antiproliferative activity against human A549 cells after 72 hrs by MTT assay", "type": "functional, cell-based", "conditions": "A549, 72 h"}, "[6]": {"test_system": "SMMC-7721", "assay": "Antiproliferative activity against human SMMC7721 cells after 72 hrs by MTT assay", "type": "functional, cell-based", "conditions": "SMMC-7721, 72 h"}, "[7]": {"test_system": "L02", "assay": "Cytotoxicity against human HL7702 cells up to 72 hrs by MTT assay", "type": "cell-based", "conditions": "L02, 72 h"}, "[8]": {"test_system": "SMMC-7721", "assay": "Inhibition of colony formation in human SMMC7721 cells assessed as colony formation efficiency at 2 uM after two weeks by crystal violet staining based assay", "type": "functional", "set-up": "scale not given: the % may be the effect or the level left"}, "[9]": {"test_system": "SMMC-7721", "assay": "Inhibition of colony formation in human SMMC7721 cells after two weeks by crystal violet staining based assay", "type": "functional, cell-based"}, "[10]": {"test_system": "SMMC-7721", "assay": "Cell cycle arrest in human SMMC7721 cells assessed as accumulation at G1 phase at 1 uM after 12 hrs by propidium iodide staining based flow cytometry (reference value: 39.51%)", "type": "functional"}, "[11]": {"test_system": "SMMC-7721", "assay": "Cell cycle arrest in human SMMC7721 cells assessed as accumulation at S phase at 1 uM after 12 hrs by propidium iodide staining based flow cytometry (reference value: 36.98%)", "type": "functional"}, "[12]": {"test_system": "SMMC-7721", "assay": "Cell cycle arrest in human SMMC7721 cells assessed as accumulation at G2 phase at 1 uM after 12 hrs by propidium iodide staining based flow cytometry (reference value: 18.97%)", "type": "functional"}, "[13]": {"test_system": "SMMC-7721", "assay": "Cell cycle arrest in human SMMC7721 cells assessed as accumulation at G1 phase at 2 uM after 12 hrs by propidium iodide staining based flow cytometry (reference value: 39.51%)", "type": "functional"}, "[14]": {"test_system": "SMMC-7721", "assay": "Cell cycle arrest in human SMMC7721 cells assessed as accumulation at S phase at 2 uM after 12 hrs by propidium iodide staining based flow cytometry (reference value: 36.98%)", "type": "functional"}, "[15]": {"test_system": "SMMC-7721", "assay": "Cell cycle arrest in human SMMC7721 cells assessed as accumulation at G2 phase at 2 uM after 12 hrs by propidium iodide staining based flow cytometry (reference value: 18.97%)", "type": "functional"}, "[16]": {"test_system": "SMMC-7721", "assay": "Cell cycle arrest in human SMMC7721 cells assessed as accumulation at G1 phase at 4 uM after 12 hrs by propidium iodide staining based flow cytometry (reference value: 39.51%)", "type": "functional"}, "[17]": {"test_system": "SMMC-7721", "assay": "Cell cycle arrest in human SMMC7721 cells assessed as accumulation at S phase at 4 uM after 12 hrs by propidium iodide staining based flow cytometry (reference value: 36.98%)", "type": "functional"}, "[18]": {"test_system": "SMMC-7721", "assay": "Cell cycle arrest in human SMMC7721 cells assessed as accumulation at G2 phase at 4 uM after 12 hrs by propidium iodide staining based flow cytometry (reference value: 18.97%)", "type": "functional"}, "[19]": {"test_system": "SMMC-7721", "assay": "Induction of apoptosis in human SMMC7721 cells assessed as viable cells at 0.5 uM after 12 hrs by Annexin V-FITC/PI staining based flow cytometry (reference value: 95.4%)", "type": "functional", "conditions": "SMMC-7721, 12 h, read-out: Activity"}, "[20]": {"test_system": "SMMC-7721", "assay": "Induction of apoptosis in human SMMC7721 cells assessed as early apoptotic cells at 0.5 uM after 12 hrs by Annexin V-FITC/PI staining based flow cytometry (reference value: 2.8%)", "type": "functional"}, "[21]": {"test_system": "SMMC-7721", "assay": "Induction of apoptosis in human SMMC7721 cells assessed as late apoptotic cells at 0.5 uM after 12 hrs by Annexin V-FITC/PI staining based flow cytometry (reference value: 0.9%)", "type": "functional"}, "[22]": {"test_system": "SMMC-7721", "assay": "Induction of apoptosis in human SMMC7721 cells assessed as necrotic cells at 0.5 uM after 12 hrs by Annexin V-FITC/PI staining based flow cytometry (reference value: 0.8%)", "type": "functional"}, "[23]": {"test_system": "SMMC-7721", "assay": "Induction of apoptosis in human SMMC7721 cells assessed as viable cells at 1 uM after 12 hrs by Annexin V-FITC/PI staining based flow cytometry (reference value: 95.4%)", "type": "functional", "conditions": "SMMC-7721, 12 h, read-out: Activity"}, "[24]": {"test_system": "SMMC-7721", "assay": "Induction of apoptosis in human SMMC7721 cells assessed as early apoptotic cells at 1 uM after 12 hrs by Annexin V-FITC/PI staining based flow cytometry (reference value: 2.8%)", "type": "functional"}, "[25]": {"test_system": "SMMC-7721", "assay": "Induction of apoptosis in human SMMC7721 cells assessed as late apoptotic cells at 1 uM after 12 hrs by Annexin V-FITC/PI staining based flow cytometry (reference value: 0.9%)", "type": "functional"}, "[26]": {"test_system": "SMMC-7721", "assay": "Induction of apoptosis in human SMMC7721 cells assessed as necrotic cells at 1 uM after 12 hrs by Annexin V-FITC/PI staining based flow cytometry (reference value: 0.8%)", "type": "functional"}, "[27]": {"test_system": "SMMC-7721", "assay": "Induction of apoptosis in human SMMC7721 cells assessed as viable cells at 2 uM after 12 hrs by Annexin V-FITC/PI staining based flow cytometry (reference value: 95.4%)", "type": "functional", "conditions": "SMMC-7721, 12 h, read-out: Activity"}, "[28]": {"test_system": "SMMC-7721", "assay": "Induction of apoptosis in human SMMC7721 cells assessed as early apoptotic cells at 2 uM after 12 hrs by Annexin V-FITC/PI staining based flow cytometry (reference value: 2.8%)", "type": "functional"}, "[29]": {"test_system": "SMMC-7721", "assay": "Induction of apoptosis in human SMMC7721 cells assessed as late apoptotic cells at 2 uM after 12 hrs by Annexin V-FITC/PI staining based flow cytometry (reference value: 0.9%)", "type": "functional"}, "[30]": {"test_system": "SMMC-7721", "assay": "Induction of apoptosis in human SMMC7721 cells assessed as necrotic cells at 2 uM after 12 hrs by Annexin V-FITC/PI staining based flow cytometry (reference value: 0.8%)", "type": "functional"}, "[31]": {"test_system": "SMMC-7721", "assay": "Inhibition of cell migration in human SMMC7721 cells after 24 hrs by wound healing based inverted microscopic analysis", "type": "functional"}, "[32]": {"species": "Homo sapiens", "assay": "Inhibition of Wnt signaling pathway in human SMMC7721 cells assessed as reduction in beta-catenin expression level up to 2 uM after 48 hrs by Western blot analysis", "type": "cell-based"}, "[33]": {"species": "Homo sapiens", "assay": "Inhibition of Wnt signaling pathway in human SMMC7721 cells assessed as reduction in Dvl2 expression level up to 2 uM after 48 hrs by Western blot analysis", "type": "cell-based"}, "[34]": {"species": "Homo sapiens", "assay": "Inhibition of Wnt signaling pathway in human SMMC7721 cells assessed as increase in APC expression level up to 2 uM after 48 hrs by Western blot analysis", "type": "cell-based"}, "[35]": {"species": "Homo sapiens", "assay": "Inhibition of Wnt signaling pathway in human SMMC7721 cells assessed as increase in GSK3beta phosphorylation level up to 2 uM after 48 hrs by Western blot analysis", "type": "cell-based"}}, "note": "Activity calls are given as the source filed them. The rule behind the calls is not given here.", "data": [{"smiles": "C=C1C(=O)[C@]23[C@H](O)[C@H]1C[C@H](O)[C@H]2[C@]12CCCC(C)(C)[C@H]1C[C@H]3O[C@@H]2OCCCn1cc(CN2C(=O)S/C(=C/C)C2=O)nn1", "values": [{"measurement": "IC50", "setting": "[1]", "result": 2.7, "unit": "µM"}, {"measurement": "IC50", "setting": "[2]", "result": 0.6, "unit": "µM"}, {"measurement": "IC50", "setting": "[3]", "result": 5, "unit": "µM"}, {"measurement": "IC50", "setting": "[4]", "result": 1.5, "unit": "µM"}, {"measurement": "IC50", "setting": "[5]", "result": 3.5, "unit": "µM"}, {"measurement": "IC50", "setting": "[6]", "result": 0.2, "unit": "µM"}, {"measurement": "IC50", "setting": "[7]", "result": 18.1, "unit": "µM"}, {"measurement": "Activity", "setting": "[8]", "result": 5.7, "unit": "%"}, {"measurement": "inhibition", "setting": "[9]", "result": "Dose-dependent effect"}, {"measurement": "Activity", "setting": "[10]", "result": 45.85, "unit": "%"}, {"measurement": "Activity", "setting": "[11]", "result": 13.84, "unit": "%"}, {"measurement": "Activity", "setting": "[12]", "result": 37.61, "unit": "%"}, {"measurement": "Activity", "setting": "[13]", "result": 54.97, "unit": "%"}, {"measurement": "Activity", "setting": "[14]", "result": 12.93, "unit": "%"}, {"measurement": "Activity", "setting": "[15]", "result": 26.8, "unit": "%"}, {"measurement": "Activity", "setting": "[16]", "result": 75.69, "unit": "%"}, {"measurement": "Activity", "setting": "[17]", "result": 22.27, "unit": "%"}, {"measurement": "Activity", "setting": "[18]", "result": 3.97, "unit": "%"}, {"measurement": "viability at 0.5 µM", "setting": "[19]", "result": 86.2, "unit": "%"}, {"measurement": "Activity", "setting": "[20]", "result": 7.2, "unit": "%"}, {"measurement": "Activity", "setting": "[21]", "result": 5.4, "unit": "%"}, {"measurement": "Activity", "setting": "[22]", "result": 1.1, "unit": "%"}, {"measurement": "viability at 1 µM", "setting": "[23]", "result": 79.3, "unit": "%"}, {"measurement": "Activity", "setting": "[24]", "result": 13.7, "unit": "%"}, {"measurement": "Activity", "setting": "[25]", "result": 5.8, "unit": "%"}, {"measurement": "Activity", "setting": "[26]", "result": 1.2, "unit": "%"}, {"measurement": "viability at 2 µM", "setting": "[27]", "result": 68.2, "unit": "%"}, {"measurement": "Activity", "setting": "[28]", "result": 29.2, "unit": "%"}, {"measurement": "Activity", "setting": "[29]", "result": 2.5, "unit": "%"}, {"measurement": "Activity", "setting": "[30]", "result": 0.1, "unit": "%"}, {"measurement": "inhibition", "setting": "[31]", "result": "Dose-dependent effect"}, {"measurement": "inhibition", "setting": "[32]", "result": "Active"}, {"measurement": "inhibition", "setting": "[33]", "result": "Active"}, {"measurement": "inhibition", "setting": "[34]", "result": "Active"}, {"measurement": "inhibition", "setting": "[35]", "result": "Active"}]}]}
